Data as given in PubChem BioAssay AID1963972 (Molecular Pharmacology Branch, DTP, NCI, 2024).
Where “and” joins values, the source holds several entries; their conditions need not be identical. Equal values may be shown once. Each block holds one compound with its values, some of them ahead of it.

Tested on: 945468-187-T-J2-PDC spheroids viability
Experiment: Anticancer human tumor 945468-187-T-J2-PDC patient-derived rectal carcinoma cell line growth inhibition [PI3K]
Settings: spheroids with HUVEC and MSC; for IC50: curve of first compound; for viability, T/C: stronger effect = lower value
How it was run: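 Spheroid viability read-out. Co-cultures contained the tumor line plus HUVEC and human MSCs. Each agent was paired with a PI3K inhibitor (inavolisib, alpelisib, duvelisib, copanlisib) across half-log dilutions starting at clinical Cmax, or at 10 microM when Cmax was unknown.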

[1] = second compound 0.0316 µM, first compound 0.0316 µM
[2] = second compound 0.0316 µM, first compound 0.1 µM
[3] = second compound 0.0316 µM, first compound 0.316 µM
[4] = second compound 0.0316 µM, first compound 1 µM
[5] = second compound 0.0316 µM, first compound 3.16 µM
[6] = second compound 0.0316 µM, first compound 10 µM
[7] = second compound 0.1 µM, first compound 0.0316 µM
[8] = second compound 0.1 µM, first compound 0.1 µM
[9] = second compound 0.1 µM, first compound 0.316 µM
[10] = second compound 0.1 µM, first compound 1 µM
[11] = second compound 0.1 µM, first compound 3.16 µM
[12] = second compound 0.1 µM, first compound 10 µM
[13] = second compound 0.316 µM, first compound 0.0316 µM
[14] = second compound 0.316 µM, first compound 0.1 µM
[15] = second compound 0.316 µM, first compound 0.316 µM
[16] = second compound 0.316 µM, first compound 1 µM
[17] = second compound 0.316 µM, first compound 3.16 µM
[18] = second compound 0.316 µM, first compound 10 µM
[19] = second compound 1 µM, first compound 0.0316 µM
[20] = second compound 1 µM, first compound 0.1 µM
[21] = second compound 1 µM, first compound 0.316 µM
[22] = second compound 1 µM, first compound 1 µM
[23] = second compound 1 µM, first compound 3.16 µM
[24] = second compound 1 µM, first compound 10 µM
[25] = second compound 3.16 µM, first compound 0.0316 µM
[26] = second compound 3.16 µM, first compound 0.1 µM
[27] = second compound 3.16 µM, first compound 0.316 µM
[28] = second compound 3.16 µM, first compound 1 µM
[29] = second compound 3.16 µM, first compound 3.16 µM
[30] = second compound 3.16 µM, first compound 10 µM
[31] = second compound 10 µM, first compound 0.0316 µM
[32] = second compound 10 µM, first compound 0.1 µM
[33] = second compound 10 µM, first compound 0.316 µM
[34] = second compound 10 µM, first compound 1 µM
[35] = second compound 10 µM, first compound 3.16 µM
[36] = second compound 10 µM, first compound 10 µM
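Note: spheroids exposed to compounds for seven days before reading.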

IC50 (second compound 0.0316 µM): > 10 µM | IC50 (second compound 0.1 µM): > 10 µM | IC50 (second compound 0.316 µM): > 10 µM | IC50 (second compound 1 µM): > 10 µM | IC50 (second compound 3.16 µM): > 10 µM | IC50 (second compound 10 µM): > 10 µM
Structure (SMILES): CC1(C)CCC(CN2CCN(c3ccc(C(=O)NS(=O)(=O)c4ccc(NCC5CCOCC5)c([N+](=O)[O-])c4)c(Oc4cnc5[nH]ccc5c4)c3)CC2)=C(c2ccc(Cl)cc2)C1 + Cc1nc(NC(=O)N2CCCC2C(N)=O)sc1-c1ccnc(C(C)(C)C(F)(F)F)c1
viability, T/C [1]: 101% | viability, T/C [2]: 99.6% | viability, T/C [3]: 121% | viability, T/C [4]: 103% | viability, T/C [5]: 98.7% | viability, T/C [6]: 61.4% | viability, T/C [7]: 118% | viability, T/C [8]: 97.5% | viability, T/C [9]: 116% | viability, T/C [10]: 99.5% | viability, T/C [11]: 110% | viability, T/C [12]: 66.2% | viability, T/C [13]: 113% | viability, T/C [14]: 83.7% | viability, T/C [15]: 108% | viability, T/C [16]: 91.7% | viability, T/C [17]: 80.2% | viability, T/C [18]: 66.6% | viability, T/C [19]: 102% | viability, T/C [20]: 102% | viability, T/C [21]: 82.3% | viability, T/C [22]: 102% | viability, T/C [23]: 100% | viability, T/C [24]: 71.5% | viability, T/C [25]: 81.4% | viability, T/C [26]: 91% | viability, T/C [27]: 72.6% | viability, T/C [28]: 81.2% | viability, T/C [29]: 93.8% | viability, T/C [30]: 59% | viability, T/C [31]: 83.3% | viability, T/C [32]: 76.8% | viability, T/C [33]: 69.8% | viability, T/C [34]: 71.5% | viability, T/C [35]: 75.5% | viability, T/C [36]: 63.7%

IC50 (second compound 0.00316 µM): > 10 µM | IC50 (second compound 0.01 µM): > 10 µM | IC50 (second compound 0.0316 µM): > 10 µM | IC50 (second compound 0.1 µM): > 10 µM | IC50 (second compound 0.316 µM): < 0.0316 µM | IC50 (second compound 1 µM): < 0.0316 µM
Structure (SMILES): C=CC(=O)N1CCN(c2nc(=O)n(-c3c(C)ccnc3C(C)C)c3nc(-c4c(O)cccc4F)c(F)cc23)C(C)C1 (centres undefined) + COc1c(OCCCN2CCOCC2)ccc2c3n(c(=NC(=O)c4cnc(N)nc4)nc12)CCN3
viability, T/C (second compound 0.00316 µM, first compound 0.0316 µM): 92.6% | viability, T/C (second compound 0.00316 µM, first compound 0.1 µM): 99.4% | viability, T/C (second compound 0.00316 µM, first compound 0.316 µM): 107% | viability, T/C (second compound 0.00316 µM, first compound 1 µM): 98.4% | viability, T/C (second compound 0.00316 µM, first compound 3.16 µM): 103% | viability, T/C (second compound 0.00316 µM, first compound 10 µM): 120% | viability, T/C (second compound 0.01 µM, first compound 0.0316 µM): 94.6% | viability, T/C (second compound 0.01 µM, first compound 0.1 µM): 100% | viability, T/C (second compound 0.01 µM, first compound 0.316 µM): 82.8% | viability, T/C (second compound 0.01 µM, first compound 1 µM): 96.1% | viability, T/C (second compound 0.01 µM, first compound 3.16 µM): 98% | viability, T/C (second compound 0.01 µM, first compound 10 µM): 117% | viability, T/C [1]: 90.6% | viability, T/C [2]: 90.1% | viability, T/C [3]: 108% | viability, T/C [4]: 108% | viability, T/C [5]: 94.7% | viability, T/C [6]: 97.3% | viability, T/C [7]: 81.4% | viability, T/C [8]: 98.1% | viability, T/C [9]: 73.1% | viability, T/C [10]: 85.6% | viability, T/C [11]: 85% | viability, T/C [12]: 93.2% | viability, T/C [13]: 36.9% | viability, T/C [14]: 37.9% | viability, T/C [15]: 51.2% | viability, T/C [16]: 46.7% | viability, T/C [17]: 37.2% | viability, T/C [18]: 48.5% | viability, T/C [19]: 17.9% | viability, T/C [20]: 21.1% | viability, T/C [21]: 21.7% | viability, T/C [22]: 20.7% | viability, T/C [23]: 22.7% | viability, T/C [24]: 20.9%

Structure (SMILES): CC1(C)CCC(Nc2ncc(C(F)(F)F)c(-c3c[nH]c4c(P(C)(C)=O)c(C#N)ccc34)n2)CN1 (centres undefined)
viability, T/C (compound 0.0316 µM): 94.2% (2×) and 113% and 89.1% | viability, T/C (compound 0.1 µM): 96.6% [middle of 4 runs] | viability, T/C (compound 3.16 µM): 43% [middle of 4 runs]

IC50 (second compound 0.0316 µM): > 10 µM | IC50 (second compound 0.1 µM): > 10 µM | IC50 (second compound 0.316 µM): > 10 µM | IC50 (second compound 1 µM): > 10 µM | IC50 (second compound 3.16 µM): > 10 µM | IC50 (second compound 10 µM): > 10 µM
Structure (SMILES): CNC(=O)c1ccc(N2C(=S)N(c3ccc(C#N)c(C(F)(F)F)c3)C(=O)C2(C)C)cc1F + Cc1nc(NC(=O)N2CCCC2C(N)=O)sc1-c1ccnc(C(C)(C)C(F)(F)F)c1
viability, T/C [1]: 116% | viability, T/C [2]: 103% | viability, T/C [3]: 88.8% | viability, T/C [4]: 106% | viability, T/C [5]: 108% | viability, T/C [6]: 102% | viability, T/C [7]: 95.4% | viability, T/C [8]: 82% | viability, T/C [9]: 91.3% | viability, T/C [10]: 95.5% | viability, T/C [11]: 102% | viability, T/C [12]: 85.7% | viability, T/C [13]: 108% | viability, T/C [14]: 105% | viability, T/C [15]: 91.5% | viability, T/C [16]: 118% | viability, T/C [17]: 85.5% | viability, T/C [18]: 92.6% | viability, T/C [19]: 93.3% | viability, T/C [20]: 86.2% | viability, T/C [21]: 110% | viability, T/C [22]: 79.8% | viability, T/C [23]: 78.4% | viability, T/C [24]: 92.9% | viability, T/C [25]: 81.1% | viability, T/C [26]: 85.8% | viability, T/C [27]: 84.7% | viability, T/C [28]: 83% | viability, T/C [29]: 89% | viability, T/C [30]: 83.6% | viability, T/C [31]: 83.1% | viability, T/C [32]: 68.5% | viability, T/C [33]: 74.1% | viability, T/C [34]: 73.5% | viability, T/C [35]: 72.6% | viability, T/C [36]: 63.5%
